Laboratory results reported in patent US9879034B2, “Near-infrared absorption composition, cured film, near-infrared cut filter, solid-state imaging device, infrared sensor, and compound” (FUJIFILM Corporation, priority 2015, dated 2018).

Columns and labels:
[1] = Maximum absorption wavelength of compound solution (UV-1800); assay type: physicochemical; design: unit: nm; conditions: dissolved in tetrahydrofuran, 1 g/L
Description: According to the invention, the value of the maximum absorption wavelength is obtained as follows: a compound represented by Formula (1) is dissolved in tetrahydrofuran to prepare a solution with a concentration of 1 g/L, and an absorption spectrum of the solution obtained by dissolving the compound is measured in a wavelength range of 350 nm to 1,200 nm using UV-1800 manufactured by Shimadzu Corporation.
Each compound was dissolved in tetrahydrofuran to prepare a solution with a concentration of 1 g/L. Next, the absorption spectrum of the solution obtained by dissolving each compound was measured using UV-1800 manufactured by Shimadzu Corporation, and a maximum absorption wavelength (λmax) was measured.

[2] = Solubility of compound to solvent at 25° C.; assay type: physicochemical; conditions: for Solubility Cyclohexanone / Solubility PGMEA / Solubility Toluene: 25° C.; for Solubility PGMEA: propylene glycol monomethyl ether acetate; for Solubility Cyclohexanone / solubility of the compound to each solvent (in words): cyclohexanone; for solubility of the compound to each solvent (in words): PGMEA; for Solubility Toluene / solubility of the compound to each solvent (in words): toluene
Description: The solubility of each compound to each solvent (cyclohexanone, propylene glycol monomethyl ether acetate (PGMEA), and toluene) at 25° C. was evaluated based on the following standards.
A: The solubility of the compound to the solvent at 25° C. is 2 mass % or greater.

Row | Maximum Absorption Wavelength [1] | solubility of the compound to each solvent (in words) [2] | Compound | Solubility Cyclohexanone [2] | Solubility PGMEA [2] | Solubility Toluene [2]
1 | 823 | – | CC(C)CCCC(C)CCc1ccc(B2N=c3/c(=C4\C(=O)C(c5ccc6cccc7c6c5NB(c5ccc(CCC(C)CCCC(C)C)cc5)N7)=C4O)ccc4cccc(c34)N2)cc1 (racemic) [SQ-2] | A (The solubility of the compound to the solvent at 25 °C is 2 mass % or greater.) | A (The solubility of the compound to the solvent at 25 °C is 2 mass % or greater.) | A (The solubility of the compound to the solvent at 25 °C is 2 mass % or greater.)
2 | 823 | – | CCCCCCCCCC(CCCCCCCCC)Oc1ccc(B2N=c3/c(=C4\C(=O)C(c5ccc6cccc7c6c5NB(c5ccc(OC(CCCCCCCCC)CCCCCCCCC)cc5)N7)=C4O)ccc4cccc(c34)N2)cc1 [SQ-4] | B (The solubility of the compound to the solvent at 25 °C is 1 mass % to less than 2 mass %.) | B (The solubility of the compound to the solvent at 25 °C is 1 mass % to less than 2 mass %.) | A (The solubility of the compound to the solvent at 25 °C is 2 mass % or greater.)
3 | 823 | – | COCCOCCOCCOc1ccc(B2N=c3/c(=C4\C(=O)C(c5ccc6cccc7c6c5NB(c5ccc(OCCOCCOCCOC)cc5)N7)=C4O)ccc4cccc(c34)N2)cc1 [SQ-5] | B (The solubility of the compound to the solvent at 25 °C is 1 mass % to less than 2 mass %.) | A (The solubility of the compound to the solvent at 25 °C is 2 mass % or greater.) | B (The solubility of the compound to the solvent at 25 °C is 1 mass % to less than 2 mass %.)
4 | 807 | did not have sufficient solubility | CCC1(CC)N=c2/c(=C3\C(=O)C(c4ccc5cccc6c5c4NC(CC)(CC)N6)=C3O)ccc3cccc(c23)N1 [Compound R-2, reference compound] | C (The solubility of the compound to the solvent at 25 °C is 0.5 mass % to less than 1 mass %.) | C (The solubility of the compound to the solvent at 25 °C is 0.5 mass % to less than 1 mass %.) | B (The solubility of the compound to the solvent at 25 °C is 1 mass % to less than 2 mass %.)
5 | 828 | – | CCCCCCCCCCOc1ccccc1B1N=c2/c(=C3\C(=O)C(c4ccc5cccc6c5c4NB(c4ccccc4OCCCCCCCCCC)N6)=C3O)ccc3cccc(c23)N1 [SQ-6] | B (The solubility of the compound to the solvent at 25 °C is 1 mass % to less than 2 mass %.) | B (The solubility of the compound to the solvent at 25 °C is 1 mass % to less than 2 mass %.) | A (The solubility of the compound to the solvent at 25 °C is 2 mass % or greater.)
6 | 827 | did not have sufficient solubility | CC(C)(C)c1ccc(B2N=c3/c(=C4\C(=O)C(c5ccc6cccc7c6c5NB(c5ccc(C(C)(C)C)cc5)N7)=C4O)ccc4cccc(c34)N2)cc1 [Compound R-1, reference compound] | D (The solubility of the compound to the solvent at 25 °C is less than 0.5 mass %.) | D (The solubility of the compound to the solvent at 25 °C is less than 0.5 mass %.) | D (The solubility of the compound to the solvent at 25 °C is less than 0.5 mass %.)
7 | 815 | – | CCCCCCCCCC(CCCCCCCCC)B1N=c2/c(=C3\C(=O)C(c4ccc5cccc6c5c4NB(C(CCCCCCCCC)CCCCCCCCC)N6)=C3O)ccc3cccc(c23)N1 [SQ-7] | B (The solubility of the compound to the solvent at 25 °C is 1 mass % to less than 2 mass %.) | B (The solubility of the compound to the solvent at 25 °C is 1 mass % to less than 2 mass %.) | B (The solubility of the compound to the solvent at 25 °C is 1 mass % to less than 2 mass %.)
8 | 828 | – | C=CCCCCCCCCOc1ccccc1B1N=c2/c(=C3\C(=O)C(c4ccc5cccc6c5c4NB(c4ccccc4OCCCCCCCCC=C)N6)=C3O)ccc3cccc(c23)N1 [SQ-11] | A (The solubility of the compound to the solvent at 25 °C is 2 mass % or greater.) | B (The solubility of the compound to the solvent at 25 °C is 1 mass % to less than 2 mass %.) | A (The solubility of the compound to the solvent at 25 °C is 2 mass % or greater.)
